Measured values reported in paper PMC4405286, “Extracellular vesicle sorting of α-Synuclein is regulated by sumoylation” (Acta Neuropathologica, 2015).
Read-outs that look alike come from different tables or passages of the source.

Target: T1, SUMO-2 (Homo sapiens, UniProt P55854)
T1 construct: gene SUMO3; recombinant, untagged as far as told, pET11, E. coli (NMR, 15N-labelled); for titrations single Cys labelled with MFM probe
Assay: fluorescence titration of MFM-labelled protein with SUVs, global fit
Assay type: binding

[1] = SUVs POPC:POPS:PI 85:10:5, too weak to be determined, bound set by POPS, acyl chains not given, MFM-labelled protein, 25 mM Na-HEPES, 100 mM KCl, pH 7.26, room temperature

T1 sequence (P55854 1-92): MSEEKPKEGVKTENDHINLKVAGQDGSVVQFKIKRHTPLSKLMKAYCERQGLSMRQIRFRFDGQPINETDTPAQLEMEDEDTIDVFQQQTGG

Compound | Kd [1] [µM] | further results
PI(3)P | – | Kd (lipid in SUVs POPC:POPS:PI 85:10:5, per-lipid Kd from global fit, includes binding stoichiometry, acyl chains not given, MFM-labelled protein, 25 mM Na-HEPES, 100 mM KCl, pH 7.26, room temperature): ~4 µM
CCCCCCCC/C=C\CCCCCCCC(=O)O[C@H](COC(=O)CCCCCCCCCCCCCCC)COP(=O)([O-])OCC[N+](C)(C)C [POPC, 1-palmitoyl,2-oleoyl-sn-glycero-3-phosphocholine] | – | Kd: 180 ± 42 µM
PI(5)P | > 7 | –
PI(3,5)P2 | > 7 | –
PI(4,5)P2 | > 7 | –
